# Data as given in patent publication US8906826B2, “Herbicidal compositions comprising 4-amino-3-chloro-5-fluoro-6-(4-chloro-2-fluoro-3-methoxyphenyl) pyridine-2-carboxylic acid or a derivative thereof and imidazolinones” (Dow AgroSciences, LLC, priority 2012, dated 2014).
# Several values for one entry are separate records, joined by “and”; a condition that tells them apart may be missing. Equal entries are not always repeated.
# Assays:
# CYPIR = assay: Postemergence foliar-applied, direct seeded rice weeds (Example I); type: in vivo, Cyperus iria L.
# Excerpt: (§1) Seeds or nutlets of the desired test plant species were planted in a soil matrix prepared by mixing a loam or sandy loam soil (e.g., 28.6 percent silt, 18.8 percent clay, and 52.6 percent sand, with a pH of about 5.8 and an organic matter content of about 1.8 percent) and calcareous grit in an 80 to 20 ratio. The soil matrix was contained in plastic pots with a volume of 1 quart and a surface area of 83.6 cm^2. When required to ensure good germination and healthy plants, a fungicide treatment and/or other chemical or physical treatment was applied. The plants were grown for 8-22 days in a greenhouse with an approximate 14 h photoperiod which was maintained at about 29° C. during the day and 26° C. during the night. Nutrients (Peters Excel® 15-5-15 5-Ca 2-Mg and iron chelate) were applied in the irrigation solution as needed and water was added on a regular basis. Supplemental lighting was provided with overhead metal halide 1000-Watt lamps as necessary. The plants were employed for testing when they reached the first through fourth true leaf stage.
# (§2) Treatments consisted of the acid or esters of 4-amino-3-chloro-5-fluoro-6-(4-chloro-2-fluoro-3-methoxy-phenyl)pyridine-2-carboxylic acid (Compound A), each formulated as an SC (suspension concentrate), and various herbicidal components alone and in combination. Forms of compound A were applied on an acid equivalent basis.
# (§3) Other herbicidal components were applied on an acid equivalent basis and include acetolactate synthase (ALS)-inhibiting herbicides (imidazolinone chemical class) imazethapyr ammonium salt formulated as Newpath®, imazamox ammonium salt formulated as Beyond®, imazapic ammonium salt formulated as Plateau®, imazapyr isopropylamine salt formulated as Arsenal®, imazamethabenz-methyl (technical material) and imazaquin isopropylamine salt formulated as Scepter®/Imagine®.
# (§4) Treatment requirements were calculated based upon the rates being tested, the concentration of active ingredient or acid equivalent in the formulation, and a 12 mL application volume at a rate of 187 L/ha.
# (§5) For treatments comprised of formulated compounds, measured amounts of compounds were placed individually in 25 mL glass vials and diluted in a volume of 1.25% (v/v) Agri-Dex® crop oil concentrated to obtain 12× stock solutions. […] Application solutions were prepared by adding an appropriate amount of each stock solution (e.g., 1 mL) and diluted to the appropriate final concentrations with the addition of 10 mL of an aqueous mixture of 1.25% (v/v) crop oil concentrate so that the final spray solutions contained 1.25+/−0.05% (v/v) crop oil concentrate.
# For treatments comprised of technical compounds, weighed amounts can be placed individually in 25 mL glass vials and dissolved in a volume of 97:3 v/v acetone/DMSO to obtain 12× stock solutions. […] Application solutions can be prepared by adding an appropriate amount of each stock solution (e.g., 1 mL) and diluted to the appropriate final concentrations with the addition of 10 mL of an aqueous mixture of 1.5% (v/v) crop oil concentrate so that the final spray solutions contain 1.25% (v/v) crop oil concentrate. When technical materials are used, the concentrated stock solutions can be added to the spray solutions so that the final acetone and DMSO concentrations of the application solutions are 16.2% and 0.5%, respectively.
# (§6) For treatments comprised of formulated and technical compounds, weighed amounts of the technical materials were placed individually in 25 mL glass vials and dissolved in a volume of 97:3 v/v acetone/DMSO to obtain 12× stock solutions, and measured amounts of the formulated compounds were placed individually in 25 mL glass vials and diluted in a volume of 1.5% (v/v) crop oil concentrate or water to obtain 12× stock solutions. […]
# DIGSA = assay: as above; type: in vivo, Digitaria sanguinalis (L.) Scop.
# Excerpt: as §1, §2, §3, §4
# For treatments comprised of formulated compounds, measured amounts of compounds were placed individually in 25 mL glass vials and diluted in a volume of 1.25% (v/v) Agri-Dex® crop oil concentrated to obtain 12× stock solutions. […]
# as §6
# ALOMY = assay: Postemergence foliar-applied, general weed control (Example III); type: in vivo, Alopecurus myosuroides Huds.
# Description: Seeds or nutlets of the desired test plant species were planted in Sun Gro Metro-Mix® 360 planting mixture, which typically has a pH of about 6.0 to about 6.8 and an organic matter content of about 30 percent, in plastic pots with a surface area of 84.6 cm^2 and a volume of 560 cubic centimeters (cm^3). When required to ensure good germination and healthy plants, a fungicide treatment and/or other chemical or physical treatment was applied. The plants were grown for 7-31 days (d) in a greenhouse with an approximate 15 hour (h) photoperiod which was maintained at about 23-29° C. during the day and about 22-28° C. during the night. Nutrients (Peters Excel® 15-5-15 5-Ca 2-Mg) and water were added on a regular basis and supplemental lighting was provided with overhead metal halide 1000-Watt lamps as necessary. The plants were employed for testing when they reached the first, second, or third true leaf stage.
# as §4
# Treatments consisted of the acid or esters of 4-amino-3-chloro-5-fluoro-6-(4-chloro-2-fluoro-3-methoxy-phenyl)pyridine-2-carboxylic acid (Compound A), each formulated as an SC, and various herbicidal components alone and in combination. Forms of compound A were applied on an acid equivalent basis.
# Other herbicidal components were applied on an acid equivalent basis and included acetolactate synthase (ALS)-inhibiting herbicides (imidazolinone chemical class) imazethapyr ammonium salt formulated as Newpath®, and imazapic ammonium salt formulated as Plateau®.
# as §5, with “(typically” for “(e.g.,”
# All stock solutions and applications solutions were visually inspected for compound compatibility prior to application. […]
# The treated plants and control plants were placed in a greenhouse as described above and watered by sub-irrigation to prevent wash-off of the test compounds. After approximately 3 weeks, the condition of the test plants as compared with that of the untreated plants was determined visually and scored on a scale of 0 to 100 percent where 0 corresponds to no injury or growth inhibition and 100 corresponds to complete kill. […]
compound,measurement,setting,value
"COCc1cnc(C2=NC(C)(C(C)C)C(=O)N2)c(C(=O)O)c1.N (racemic) [Imazamox ammonium, ammonium (±)-2-[4,5-dihydro-4-methyl-4-(1-methylethyl)-5-oxo-1H-imidazol-2-yl]-5-(methoxymethyl)-3-pyridinecarboxylate]",Visual Weed Control (%) - 25 DAA CYPIR Obs,CYPIR; Imazamox ammonium 11.2 gae/ha,20%
same,Visual Weed Control (%) - 25 DAA CYPIR Obs,CYPIR; Imazamox ammonium 22.4 gae/ha,70%
same,Visual Weed Control (%) - 20 DAA DIGSA Obs,DIGSA; Imazamox ammonium 44.8 gae/ha,60%
"Cc1cnc(C2=NC(C)(C(C)C)C(=O)N2)c(C(=O)O)c1.N (racemic) [Imazapic ammonium, ammonium (±)-2-[4,5-dihydro-4-methyl-4-(1-methylethyl)-5-oxo-1H-imidazol-2-yl]-5-methyl-3-pyridinecarboxylic acid]",Visual Control (%) - 19 DAA ALOMY Obs,ALOMY; Imazapic ammonium 35 gae/ha,30%
same,Visual Weed Control (%) - 19 DAA ALOMY Obs,ALOMY; Imazapic ammonium 35 gae/ha,30%
same,Visual Weed Control (%) - 22 DAA CYPIR Obs,CYPIR; Imazapic ammonium 7 gae/ha,20%
"CCc1cnc(C2=NC(C)(C(C)C)C(=O)N2)c(C(=O)O)c1.N (racemic) [Imazethapyr ammonium, ammonium (±)-2-[4,5-dihydro-4-methyl-4-(1-methylethyl)-5-oxo-1H-imidazol-2-yl]-5-ethyl-3-pyridinecarboxylate]",Visual Weed Control (%) - 20 DAA DIGSA Obs,DIGSA; Imazethapyr ammonium 70 gae/ha,80%
"COc1c(Cl)ccc(-c2nc(C(=O)O)c(Cl)c(N)c2F)c1F [Compound A Acid, 4-amino-3-chloro-6-(4-chloro-2-fluoro-3-methoxyphenyl)-5-fluoropyridine-2-carboxylic acid]",Visual Weed Control (%) - 19 DAA ALOMY Obs,ALOMY; Compound A Acid 29 gae/ha,10%
same,Visual Weed Control (%) - 20 DAA DIGSA Obs,DIGSA; Compound A Acid 19.3 gae/ha,13%
"COc1c(Cl)ccc(-c2nc(C(=O)OCc3ccccc3)c(Cl)c(N)c2F)c1F [Compound A Benzyl Ester, benzyl ester of 4-amino-3-chloro-5-fluoro-6-(4-chloro-2-fluoro-3-methoxy-phenyl)pyridine-2-carboxylic acid]",Visual Control (%) - 19 DAA ALOMY Obs,ALOMY; Compound A Benzyl Ester 24 gae/ha,20%
same,Visual Weed Control (%) - 22 DAA CYPIR Obs,CYPIR; Compound A Benzyl Ester 8 gae/ha,20% and 30%
same,Visual Weed Control (%) - 25 DAA CYPIR Obs,CYPIR; Compound A Benzyl Ester 8.75 gae/ha,75%
same,Visual Weed Control (%) - 22 DAA CYPIR Obs,CYPIR; Compound A Benzyl Ester 16 gae/ha,85%
